Assay results taken from paper PMC11440508, “Dually Labeled Neurotensin NTS1R Ligands for Probing Radiochemical and Fluorescence-Based Binding Assays” (Journal of Medicinal Chemistry, 2024).
Read-outs that look alike come from different tables or passages of the source. One block for each molecule: values may come before it. Starred links: 1 amine or outer side, 2 acyl side, 3 side chain; linkers in the order of their positions; H or OH if unused. Non-standard residues stand in square brackets, D forms with d. Residues, ends and D or L forms follow the SMILES beside them. Groups on a side chain read outwards from the residue. *: point of attachment. X1 = CN(C)c1ccc2c(-c3ccc(C(=O)*)cc3C(=O)[O-])c3ccc(=[N+](C)C)cc-3oc2c1; X4 = NCCCCNC(=O)N=C(N)NCCC[C@H](N[*:1])C(=O)[*:2]; dTyr(β,β-Me2) = CC(C)(c1ccc(O)cc1)[C@@H](N)C(=O)O; Tyr(β,β-Me2) = CC(C)(c1ccc(O)cc1)[C@H](N)C(=O)O; Gly(piperidin-4-yl) = N[C@H](C(=O)O)C1CCNCC1; X2 = O=C(CCc1cn(CCCN[*:1])nn1)[*:2]; Pent4ynoyl = C#CCCC(=O)*; Pra = C#CC[C@H](N)C(=O)O; NH(CH2)4NH2 = NCCCCN*; CO = O=C([*:1])[*:2]; Propionyl = CCC(=O)*; GABA = NCCCC(=O)O

Key:
NTS1R [1] = target: T1, NTS1R (Homo sapiens, UniProt P30989); assay: Radioligand competition binding with [^3H]UR-MK300 at intact HT-29 colon carcinoma cells; conditions: [^3H]UR-MK300, intact HT-29 cells, 23 °C; read-out: NTS1R pKi ± SEM (converted)
Procedure: NTS1R binding affinities were determined in a reported competition binding assay[13] using intact hNTS1R-expressing HT-29 colon carcinoma cells and [^3H]UR-MK300 (structure see Figure 1A) as radioligand (competition binding curves shown in Figure S4, Supporting Information).
NTS1R radioligand competition binding experiments with [^3H]UR-MK300 (molar activity: 2.41 TBq/mmol) and the peptides 6–9, 10a, 10b, 13–16, and 18 were performed with intact hNTS1R-expressing human HT-29 colon carcinoma cells at 23 ± 1 °C using a previously reported protocol.[13] […] Cells were seeded one day before the assay, yielding a confluency of at least 90% on the day of the experiment. Total binding data (including total binding in the absence of competitor) were plotted as dpm values against log(concentration competitor) and analyzed by a four-parameter logistic equation (log(inhibitor) vs response–variable slope, GraphPad Prism 5, GraphPad Software, San Diego, CA) to obtain pIC50 values. Individual pIC50 values were converted to pKi values according to the Cheng–Prusoff equation[60] (logarithmic form). To plot average data from individual binding experiments, data were normalized (100% = “top” of the four-parameter logistic fit, 0% = unspecifically bound radioligand).

NTS1R [2] = target: T1, NTS1R; assay: Fura-2 Ca^2+ assay at CHO-hNTS1R cells; format: cell-based; conditions: agonist mode, read-out: NTS1R pEC50 ± SEM (converted)
NTS1R [3] = target: T1, NTS1R; assay: High-content imaging (HCI) competition binding, adherent CHO-hNTS1R cells; conditions: labeled probe 13 ([…]), 90 min, 23 °C
Procedure: The final volume per well was 200 μL. […] All experiments were performed in triplicate.

NTS1R [4] = target: T1, NTS1R; assay: Flow cytometric (FC) competition binding, suspended CHO-hNTS1R cells; conditions: labeled probe 13 (2.6 nM), 90 min, 23 °C
Procedure: Flow cytometry-based NTS1R binding studies were performed with intact CHO-hNTS1R (all kind of experiments) and HT-29 cells (only saturation binding) using a BD FACSCanto II (Becton Dickinson, Heidelberg, Germany), equipped with an argon laser (488 nm) and a red diode laser (640 nm), and a BD High Throughput Sampler (HTS unit) for microtiter plates. Saturation and competition binding experiments were performed in triplicate in 96-well polypropylene plates (Brand 701330, Wertheim, Germany) using the HTS unit for sample injection. Association and dissociation experiments were performed in duplicate in 5 mL polypropylene tubes (VWR, Radnor) using the standard injection port of the flow cytometer. The following gain settings for forward and sideward scatter were applied: FSC, 0 V; SSC, 252 V. Fluorescence was recorded using the PE-channel (excitation: 488 nm, emission: 585 ± 21) nm with a PMT gain of 330–400 V. For measurements using the HTS unit, 45 μL of the sample were injected with a speed of 1.5 μL/s. For measurements, requiring the use of the standard injection port, the medium flow rate ([…]) was used. Measurements were stopped after 30 s (HTS unit) or after counting of 500–3000 gated events (standard injection port). […]
A 96-well polypropylene plate was prefilled with 200 μL of cell suspension. […] Data were analyzed as described for HCI competition binding experiments.

NTS1R [5] = target: T1, NTS1R; assay: Radiochemical competition binding, adherent CHO-hNTS1R cells; conditions: labeled probe [^3H]13 (1.3 nM), 90 min, 23 °C
NTS1R [6] = target: T1, NTS1R; assay: Radiochemical competition binding, suspended CHO-hNTS1R cells; conditions: labeled probe [^3H]13 (1.8 nM), 90 min, 23 °C
NTS1R [7] = target: T1, NTS1R; assay: Radiochemical competition binding with [^3H]13 at membranes of CHO-hNTS1R cells; conditions: labeled probe [^3H]13 ([…]), 50 μM GppNHp, 23 °C
NTS1R [8] = conditions: reported binding data, cited from earlier work
NTS1R [9] = target: T1, NTS1R; assay: Fluorescence anisotropy (FA) competition binding at hNTS1R-displaying BBVs; set-up: NlucC (C-terminal fragment of nanoluciferase, 11 amino acids) (C); made in house; host or cells: Sf9 insect cells, baculovirus (pIMACE-CMVintP10-hNTS1R-Nluc, DH10MultiBac); budded baculovirus particles; conditions: 27 °C

T1 sequence (P30989 whole entry): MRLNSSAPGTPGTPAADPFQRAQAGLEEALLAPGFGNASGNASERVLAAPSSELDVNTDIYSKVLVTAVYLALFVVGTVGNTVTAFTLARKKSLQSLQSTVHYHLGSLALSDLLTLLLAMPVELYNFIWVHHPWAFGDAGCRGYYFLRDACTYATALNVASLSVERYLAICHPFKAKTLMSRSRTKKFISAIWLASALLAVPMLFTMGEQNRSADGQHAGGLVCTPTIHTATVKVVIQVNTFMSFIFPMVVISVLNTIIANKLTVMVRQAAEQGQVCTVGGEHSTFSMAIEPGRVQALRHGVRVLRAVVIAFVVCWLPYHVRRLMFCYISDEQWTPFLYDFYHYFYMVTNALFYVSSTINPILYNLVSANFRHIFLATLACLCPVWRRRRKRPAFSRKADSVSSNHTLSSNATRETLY

Molecule: C#CCCC(=O)N[C@H](C(=O)N1CCC[C@H]1C(=O)N[C@@H](CCCNC(N)=NC(=O)NCCCCN)C(=O)N[C@@H](CCCNC(=N)N)C(=O)N1CCC[C@H]1C(=O)N[C@@H](Cc1ccc(O)cc1)C(=O)N[C@H](C(=O)N[C@@H](CC(C)C)C(=O)O)[C@@H](C)CC)C1CCNCC1 [Compound 6, N^α-(Pent-4-ynoyl)-2-(piperidin-4-yl)-Gly-Pro-N^ω-[(4-aminobutyl)aminocarbonyl]Arg-Arg-Pro-Tyr-Ile-Leu Tetrakis(hydrotrifluoroacetate)] (Pent4ynoyl-[Gly(piperidin-4-yl)]P[X4]RPYIL-OH)
Ki (NTS1R [1]): 603 pM

Molecule: C#CC[C@H](NC(=O)CCCN)C(=O)N[C@H](C(=O)N1CCC[C@H]1C(=O)N[C@@H](CCCNC(=N)N)C(=O)N[C@@H](CCCNC(=N)N)C(=O)N1CCC[C@H]1C(=O)N[C@@H](Cc1ccc(O)cc1)C(=O)N[C@H](C(=O)N[C@@H](CC(C)C)C(=O)O)[C@@H](C)CC)C1CCNCC1 [Compound 9] (H-[GABA][Pra][Gly(piperidin-4-yl)]PRRPYIL-OH)
Ki (NTS1R [1]): 302 pM

Molecule: C#CCCC(=O)N[C@H](C(=O)N1CCC[C@H]1C(=O)N[C@@H](CCCNC(=N)NC(=O)NCCCCN)C(=O)N[C@@H](CCCNC(=N)N)C(=O)N1CCC[C@H]1C(=O)N[C@H](C(=O)N[C@H](C(=O)N[C@@H](CC(C)C)C(=O)O)[C@@H](C)CC)C(C)(C)c1ccc(O)cc1)C1CCNCC1 [Compound 10a, N^α-(Pent-4-ynoyl)-2-(piperidin-4-yl)-Gly-Pro-N^ω-[(4-aminobutyl)aminocarbonyl]Arg-Arg-Pro-β,β-dimethyl-L-Tyr-Ile-Leu Tetrakis(hydrotrifluoroacetate)] (Pent4ynoyl-[Gly(piperidin-4-yl)]PR([CO-NH(CH2)4NH2])RP[Tyr(β,β-Me2)]IL-OH)
EC50 (NTS1R [2]): 316 pM

Molecule: C#CCCC(=O)N[C@H](C(=O)N1CCC[C@H]1C(=O)N[C@@H](CCCNC(N)=NC(=O)NCCCCN)C(=O)N[C@@H](CCCNC(=N)N)C(=O)N1CCC[C@H]1C(=O)N[C@@H](C(=O)N[C@H](C(=O)N[C@@H](CC(C)C)C(=O)O)[C@@H](C)CC)C(C)(C)c1ccc(O)cc1)C1CCNCC1 [Compound 10b, N^α-(Pent-4-ynoyl)-2-(piperidin-4-yl)-Gly-Pro-N^ω-[(4-aminobutyl)aminocarbonyl]Arg-Arg-Pro-β,β-dimethyl-D-Tyr-Ile-Leu Tetrakis(hydrotrifluoroacetate)] (Pent4ynoyl-[Gly(piperidin-4-yl)]P[X4]RP[dTyr(β,β-Me2)]IL-OH)
Ki (NTS1R [1]): 135000 pM

Molecule: CCC(=O)NCCCC[C@@H](NC(=O)CCc1cn(CCCNC(=O)c2ccc(-c3c4ccc(=[N+](C)C)cc-4oc4cc(N(C)C)ccc34)c(C(=O)[O-])c2)nn1)C(=O)N1CCC[C@H]1C(=O)N[C@@H](CCCNC(=N)N)C(=O)N[C@@H](CCCNC(=N)N)C(=O)N1CCC[C@H]1C(=O)N[C@@H](Cc1ccc(O)cc1)C(=O)N[C@H](C(=O)N[C@@H](CC(C)C)C(=O)O)[C@@H](C)CC [Compound 15] (X1-[X2][dK](Propionyl)PRRPYIL-OH)
Ki (NTS1R [1]): 2950 pM

Molecule: CCC(=O)NCCCC(=O)N[C@@H](Cc1cn(CCCNC(=O)c2ccc(-c3c4ccc(=[N+](C)C)cc-4oc4cc(N(C)C)ccc34)c(C(=O)[O-])c2)nn1)C(=O)N[C@H](C(=O)N1CCC[C@H]1C(=O)N[C@@H](CCCNC(=N)N)C(=O)N[C@@H](CCCNC(=N)N)C(=O)N1CCC[C@H]1C(=O)N[C@@H](Cc1ccc(O)cc1)C(=O)N[C@H](C(=O)N[C@@H](CC(C)C)C(=O)O)[C@@H](C)CC)C1CCNCC1 [Compound 16]
Ki (NTS1R [1]): 724 pM

HCI: pKi ± SEM (NTS1R [3]): 9.42 ± 0.21 | FC: pKi ± SEM (NTS1R [4]): 9.24 ± 0.15 | RC adherent cells: pKi ± SEM (NTS1R [5]): 8.31 ± 0.18 | RC cell suspension: pKi ± SEM (NTS1R [6]): 8.19 ± 0.16 | pKi ± SEM (NTS1R [7]): 9.56 ± 0.06 | FA: pKi ± SEM (NTS1R [9]; labeled probe 13 (0.3 nM), NTS1R-BBVs, 90 min): 8.97 | FA: pKi (NTS1R [9]; labeled probe 18, NTS1R-BBVs): 9.19
Molecule: SR142948
Ki (NTS1R [8]; ref 13): 1100 pM | Ki (NTS1R [8]; ref 52): 1000 pM
